System: 616215-338-R-J1-PDC complex spheroid viability
Test: Anticancer human tumor 616215-338-R-J1-PDC patient-derived colon adenocarcinoma cell line growth inhibition [POLQ]
Conditions: for IC50: curve of first compound; for viability, T/C: stronger effect = lower value
In short: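 Patient-derived tumour cells were co-cultured with HUVEC and mesenchymal stem cells as multicellular spheroids at 37 °C. They were treated with POLQ inhibitors (novobiocin, ART-558, RP6685) alone or combined with other agents. Top concentrations were at or near clinical Cmax (otherwise 10 microM; SN-38 at 1 microM), decreasing in half-log steps.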

[1] = second compound 0.0316 µM, first compound 0.0316 µM
[2] = second compound 0.0316 µM, first compound 0.1 µM
[3] = second compound 0.0316 µM, first compound 0.316 µM
[4] = second compound 0.0316 µM, first compound 1 µM
[5] = second compound 0.0316 µM, first compound 3.16 µM
[6] = second compound 0.0316 µM, first compound 10 µM
[7] = second compound 0.1 µM, first compound 0.0316 µM
[8] = second compound 0.1 µM, first compound 0.1 µM
[9] = second compound 0.1 µM, first compound 0.316 µM
[10] = second compound 0.1 µM, first compound 1 µM
[11] = second compound 0.1 µM, first compound 3.16 µM
[12] = second compound 0.1 µM, first compound 10 µM
[13] = second compound 0.316 µM, first compound 0.0316 µM
[14] = second compound 0.316 µM, first compound 0.1 µM
[15] = second compound 0.316 µM, first compound 0.316 µM
[16] = second compound 0.316 µM, first compound 1 µM
[17] = second compound 0.316 µM, first compound 3.16 µM
[18] = second compound 0.316 µM, first compound 10 µM
[19] = second compound 1 µM, first compound 0.0316 µM
[20] = second compound 1 µM, first compound 0.1 µM
[21] = second compound 1 µM, first compound 0.316 µM
[22] = second compound 1 µM, first compound 1 µM
[23] = second compound 1 µM, first compound 3.16 µM
[24] = second compound 1 µM, first compound 10 µM
[25] = second compound 3.16 µM, first compound 0.0316 µM
[26] = second compound 3.16 µM, first compound 0.1 µM
[27] = second compound 3.16 µM, first compound 0.316 µM
[28] = second compound 3.16 µM, first compound 1 µM
[29] = second compound 3.16 µM, first compound 3.16 µM
[30] = second compound 3.16 µM, first compound 10 µM
[31] = second compound 10 µM, first compound 0.0316 µM
[32] = second compound 10 µM, first compound 0.1 µM
[33] = second compound 10 µM, first compound 0.316 µM
[34] = second compound 10 µM, first compound 1 µM
[35] = second compound 10 µM, first compound 3.16 µM
[36] = second compound 10 µM, first compound 10 µM
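Also: spheroids exposed to compounds for one week before readout.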
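For viability, T/C in this document: percent viability relative to DMSO vehicle wells taken as 100%.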

CCc1cc2c(N3CCc4c(cc(Cn5ccnc5)cc4-c4cn(C)nc4C(F)(F)F)C3=O)ccnc2c(OC)n1 + Nc1ccc(C#CCN(C(=O)Cc2ncc(C(F)(F)F)cc2C(F)(F)F)c2ccc(F)cc2)nn1
IC50 (second compound 0.0316 µM): > 10 µM | IC50 (second compound 0.1 µM): 6.52 µM | IC50 (second compound 0.316 µM): 5.19 µM | IC50 (second compound 1 µM): 3.07 µM | IC50 (second compound 3.16 µM): 4.4 µM | IC50 (second compound 10 µM): 2.69 µM | viability, T/C [1]: 118% | viability, T/C [2]: 111% | viability, T/C [3]: 95.6% | viability, T/C [4]: 56.6% | viability, T/C [5]: 54.1% | viability, T/C [6]: 49.1% | viability, T/C [7]: 117% | viability, T/C [8]: 120% | viability, T/C [9]: 88.8% | viability, T/C [10]: 66.8% | viability, T/C [11]: 55.8% | viability, T/C [12]: 45.4% | viability, T/C [13]: 121% | viability, T/C [14]: 113% | viability, T/C [15]: 98.9% | viability, T/C [16]: 64.7% | viability, T/C [17]: 53.6% | viability, T/C [18]: 46.9% | viability, T/C [19]: 111% | viability, T/C [20]: 107% | viability, T/C [21]: 94.9% | viability, T/C [22]: 56.2% | viability, T/C [23]: 63.8% | viability, T/C [24]: 37.3% | viability, T/C [25]: 115% | viability, T/C [26]: 110% | viability, T/C [27]: 98% | viability, T/C [28]: 70.8% | viability, T/C [29]: 56.4% | viability, T/C [30]: 40.4% | viability, T/C [31]: 100% | viability, T/C [32]: 104% | viability, T/C [33]: 95.3% | viability, T/C [34]: 68.4% | viability, T/C [35]: 48.6% | viability, T/C [36]: 40.4%

COc1cc2cc(C(=O)CCC(=O)O)sc2cc1OC + Nc1ccc(C#CCN(C(=O)Cc2ncc(C(F)(F)F)cc2C(F)(F)F)c2ccc(F)cc2)nn1
IC50 (second compound 0.0316 µM): > 10 µM | IC50 (second compound 0.1 µM): > 10 µM | IC50 (second compound 0.316 µM): > 10 µM | IC50 (second compound 1 µM): > 10 µM | IC50 (second compound 3.16 µM): > 10 µM | IC50 (second compound 10 µM): > 10 µM | viability, T/C [1]: 109% | viability, T/C [2]: 105% | viability, T/C [3]: 110% | viability, T/C [4]: 108% | viability, T/C [5]: 109% | viability, T/C [6]: 102% | viability, T/C [7]: 108% | viability, T/C [8]: 106% | viability, T/C [9]: 117% | viability, T/C [10]: 104% | viability, T/C [11]: 119% | viability, T/C [12]: 108% | viability, T/C [13]: 112% | viability, T/C [14]: 108% | viability, T/C [15]: 105% | viability, T/C [16]: 108% | viability, T/C [17]: 113% | viability, T/C [18]: 99.9% | viability, T/C [19]: 110% | viability, T/C [20]: 102% | viability, T/C [21]: 101% | viability, T/C [22]: 113% | viability, T/C [23]: 115% | viability, T/C [24]: 102% | viability, T/C [25]: 108% | viability, T/C [26]: 101% | viability, T/C [27]: 108% | viability, T/C [28]: 103% | viability, T/C [29]: 107% | viability, T/C [30]: 101% | viability, T/C [31]: 95.3% | viability, T/C [32]: 91.1% | viability, T/C [33]: 86.8% | viability, T/C [34]: 97.2% | viability, T/C [35]: 89.3% | viability, T/C [36]: 79.2%
